# Measured values as given in patent US8283353B2, “Fused ring compound and use thereof” (Takeda Pharmaceutical Company Limited, priority 2009, dated 2012).
# Assays:
# human AT1 receptor = biological target: T1, human AT1 receptor (Homo sapiens, UniProt P30556); assay: AT1 receptor antagonistic activity: [125I]-angiotensin II binding assay on human AT1 receptor-expressing CHO-K1 cellular membrane fraction; conditions: 22.5 pM [125I]-angiotensin II, 1 hr room temperature
# T1 construct: expressed in transfected cells; membrane fraction
# T1 sequence (P30556 1-359): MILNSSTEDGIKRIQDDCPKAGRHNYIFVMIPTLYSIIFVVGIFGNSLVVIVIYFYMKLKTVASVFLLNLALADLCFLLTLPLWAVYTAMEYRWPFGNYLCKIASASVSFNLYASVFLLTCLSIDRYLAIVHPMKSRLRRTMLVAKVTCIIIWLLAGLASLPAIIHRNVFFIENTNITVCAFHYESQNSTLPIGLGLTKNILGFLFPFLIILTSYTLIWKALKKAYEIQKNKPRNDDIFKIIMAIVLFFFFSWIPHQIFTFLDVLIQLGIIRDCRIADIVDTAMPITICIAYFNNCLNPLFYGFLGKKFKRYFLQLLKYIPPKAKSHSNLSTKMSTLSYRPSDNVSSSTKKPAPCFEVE
# Outline: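 Competition binding used radiolabelled angiotensin II on stably transfected CHO-K1 membrane fractions in Tris pH 7.4/MgCl2 buffer, optionally containing 0.3 mg/mL fatty acid-free BSA, 1 hr at room temperature. Filtration onto GF/C separated bound tracer, and nonspecific binding was measured with candesartan.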
# human PPARγ = biological target: T2, human PPARγ (Homo sapiens, UniProt P37231); assay: PPARγ agonistic activity: luciferase reporter assay in PPARγ:RXRα:4ERPP/CHO-K1 cells; type: cell-based; conditions: CHO-K1, test compound 10^−6 M; luciferase activity of control compound X (1 μM) = 100%, non-administration group = 0%
# T2 construct: expressed in transfected cells
# T2 sequence (P37231 1-477 isoform P37231-2): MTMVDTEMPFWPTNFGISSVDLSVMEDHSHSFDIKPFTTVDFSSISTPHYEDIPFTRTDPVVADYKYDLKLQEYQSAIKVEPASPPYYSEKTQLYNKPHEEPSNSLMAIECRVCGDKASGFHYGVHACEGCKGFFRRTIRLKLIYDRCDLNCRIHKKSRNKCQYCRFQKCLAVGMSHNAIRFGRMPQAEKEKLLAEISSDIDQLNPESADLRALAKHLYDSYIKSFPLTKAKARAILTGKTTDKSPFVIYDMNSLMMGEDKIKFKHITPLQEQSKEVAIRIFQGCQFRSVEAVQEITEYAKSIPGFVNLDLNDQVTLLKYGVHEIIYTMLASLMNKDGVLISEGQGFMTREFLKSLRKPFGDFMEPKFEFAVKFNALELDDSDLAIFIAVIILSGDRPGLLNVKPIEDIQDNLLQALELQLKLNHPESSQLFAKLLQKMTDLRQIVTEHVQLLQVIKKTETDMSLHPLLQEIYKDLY
# T2 sequence (P19793 1-462 partner): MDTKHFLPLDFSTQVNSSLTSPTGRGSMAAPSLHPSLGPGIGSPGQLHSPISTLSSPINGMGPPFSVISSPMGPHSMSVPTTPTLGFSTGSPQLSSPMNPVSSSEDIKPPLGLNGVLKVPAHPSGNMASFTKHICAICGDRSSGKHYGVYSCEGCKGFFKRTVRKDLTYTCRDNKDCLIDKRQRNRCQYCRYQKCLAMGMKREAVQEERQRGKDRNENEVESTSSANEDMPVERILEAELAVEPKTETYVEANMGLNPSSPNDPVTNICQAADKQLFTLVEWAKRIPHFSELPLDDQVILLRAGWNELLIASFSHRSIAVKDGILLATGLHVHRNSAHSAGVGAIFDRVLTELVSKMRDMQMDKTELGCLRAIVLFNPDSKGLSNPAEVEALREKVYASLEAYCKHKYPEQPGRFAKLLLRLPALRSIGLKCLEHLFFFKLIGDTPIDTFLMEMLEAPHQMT
# Outline: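 CHO-K1 cells stably carrying hPPARγ/RXRα and a 4ERPP luciferase reporter, dosed with test compound for 1 day at 37 °C in Ham's F12 with 0.1% fatty acid-free BSA. Luciferase read by luminescence; activity given as % of 1 μM control compound X (100%) versus untreated (0%).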
IC50 (human AT1 receptor) [nM],activation at 1 µM (human PPARγ) [%],SMILES
2.2,20,"CCCc1c(Cc2ccc(-c3ccccc3-c3noc(=O)[nH]3)cc2)c(=O)n([C@H]2CC[C@@H](Oc3ccc(C(C)=O)cc3)CC2)c2ncnn12 [Example 277, 4-[cis-4-(4-acetylphenoxy)cyclohexyl]-6-{[2′-(5-oxo-4,5-dihydro-1,2,4-oxadiazol-3-yl)biphenyl-4-yl]methyl}-7-propyl[1,2,4]triazolo[1,5-a]pyrimidin-5(4H)-one]"
2.7,22,"CCCc1c(Cc2ccc(-c3ccccc3-c3noc(=O)[nH]3)cc2)c(=O)n([C@H]2CC[C@H](Oc3ccc(C(C)=O)cc3)CC2)c2ncnn12 [Example 278, 4-[trans-4-(4-acetylphenoxy)cyclohexyl]-6-{[2′-(5-oxo-4,5-dihydro-1,2,4-oxadiazol-3-yl)biphenyl-4-yl]methyl}-7-propyl[1,2,4]triazolo[1,5-a]pyrimidin-5(4H)-one]"
1.9,16,"CCCc1c(Cc2ccc(-c3ccccc3-c3noc(=O)[nH]3)cc2)c(=O)n([C@H]2CC[C@H](Oc3ccc(C(C)(C)O)cc3)CC2)c2ncnn12 [Example 280, 4-{trans-4-[4-(1-hydroxy-1-methylethyl)phenoxy]cyclohexyl}-6-{[2′-(5-oxo-4,5-dihydro-1,2,4-oxadiazol-3-yl)biphenyl-4-yl]methyl}-7-propyl[1,2,4]triazolo[1,5-a]pyrimidin-5(4H)-one]"
1.8,42,"CCCc1c(Cc2ccc(-c3ccccc3-c3noc(=O)[nH]3)cc2)c(=O)n([C@H]2CC[C@@H](Oc3ccon3)CC2)c2ncnn12 [Example 281, 4-[cis-4-(isoxazol-3-yloxy)cyclohexyl]-6-{[2′-(5-oxo-4,5-dihydro-1,2,4-oxadiazol-3-yl)biphenyl-4-yl]methyl}-7-propyl[1,2,4]triazolo[1,5-a]pyrimidin-5(4H)-one]"
2.2,53,"CCCc1c(Cc2ccc(-c3ccccc3-c3noc(=O)[nH]3)cc2)c(=O)n([C@H]2CC[C@H](Oc3ccon3)CC2)c2ncnn12 [Example 282, 4-[trans-4-(isoxazol-3-yloxy)cyclohexyl]-6-{[2′-(5-oxo-4,5-dihydro-1,2,4-oxadiazol-3-yl)biphenyl-4-yl]methyl}-7-propyl[1,2,4]triazolo[1,5-a]pyrimidin-5(4H)-one]"
1.8,19,"CCCc1c(Cc2ccc(-c3ccccc3-c3noc(=O)[nH]3)cc2)c(=O)n([C@H]2CC[C@H](OC(C)C(C)O)CC2)c2ncnn12 (stereo partly drawn) [Example 299, 4-[trans-4-(2-hydroxy-1-methylpropoxy)cyclohexyl]-6-{[2′-(5-oxo-4,5-dihydro-1,2,4-oxadiazol-3-yl)biphenyl-4-yl]methyl}-7-propyl[1,2,4]triazolo[1,5-a]pyrimidin-5(4H)-one]"

# The remaining lines, values behind:
SMILES,IC50 (human AT1 receptor) [nM],activation at 1 µM (human PPARγ) [%]
"C=C1COC2(CCC(n3c(=O)c(Cc4ccc(-c5ccccc5-c5noc(=O)[nH]5)cc4)c(CCC)n4ncnc34)CC2)OC1 [Example 285, 4-(3-methylidene-1,5-dioxaspiro[5.5]undec-9-yl)-6-{[2′-(5-oxo-4,5-dihydro-1,2,4-oxadiazol-3-yl)biphenyl-4-yl]methyl}-7-propyl[1,2,4]triazolo[1,5-a]pyrimidin-5(4H)-one]",3.1,34
"CCCc1c(Cc2ccc(-c3ccccc3-c3noc(=O)[nH]3)cc2)c(=O)n(C2CCC3(CC2)OCCCO3)c2ncnn12 [Example 286, 4-(1,5-dioxaspiro[5.5]undec-9-yl)-6-{[2′-(5-oxo-4,5-dihydro-1,2,4-oxadiazol-3-yl)biphenyl-4-yl]methyl}-7-propyl[1,2,4]triazolo[1,5-a]pyrimidin-5(4H)-one]",3.1,39
"CCCc1c(Cc2ccc(-c3ccccc3-c3noc(=O)[nH]3)cc2)c(=O)n([C@H]2CC[C@@H](OCCO)CC2)c2nc(C)nn12 [Example 288, 4-[cis-4-(2-hydroxyethoxy)cyclohexyl]-2-methyl-6-{[2′-(5-oxo-4,5-dihydro-1,2,4-oxadiazol-3-yl)biphenyl-4-yl]methyl}-7-propyl[1,2,4]triazolo[1,5-a]pyrimidin-5(4H)-one]",2.7,17
"CCCc1c(Cc2ccc(-c3ccccc3-c3noc(=O)[nH]3)cc2)c(=O)n(C2CCC3(CC2)OC(=O)C(C)(C)O3)c2ncnn12 (centres unmarked) [Example 290, 4-(2,2-dimethyl-3-oxo-1,4-dioxaspiro[4.5]dec-8-yl)-6-{[2′-(5-oxo-4,5-dihydro-1,2,4-oxadiazol-3-yl)biphenyl-4-yl]methyl}-7-propyl[1,2,4]triazolo[1,5-a]pyrimidin-5(4H)-one]",3.2,25
"CCCc1c(Cc2ccc(-c3ccccc3-c3noc(=O)[nH]3)cc2)c(=O)n(C2CCC3(CC2)OCCO3)c2nc(C)nn12 [Example 292, 4-(1,4-dioxaspiro[4.5]dec-8-yl)-2-methyl-6-{[2′-(5-oxo-4,5-dihydro-1,2,4-oxadiazol-3-yl)biphenyl-4-yl]methyl}-7-propyl[1,2,4]triazolo[1,5-a]pyrimidin-5(4H)-one]",1.9,46
"CCCc1c(Cc2ccc(-c3ccccc3-c3noc(=O)[nH]3)cc2)c(=O)n(C2CCC3(CC2)O[C@H]2COC[C@H]2O3)c2ncnn12 (some centres unmarked) [Example 293, 6-{[2′-(5-oxo-4,5-dihydro-1,2,4-oxadiazol-3-yl)biphenyl-4-yl]methyl}-7-propyl-4-(tetrahydrospiro[cyclohexane-1,2′-furo[3,4-d][1,3]dioxol]-4-yl)[1,2,4]triazolo[1,5-a]pyrimidin-5(4H)-one]",2.3,28
"CCCc1c(Cc2ccc(-c3ccccc3-c3noc(=O)[nH]3)cc2)c(=O)n(C2CCC3(CC2)OCC(CO)O3)c2ncnn12 (centres unmarked) [Example 294, 4-[2-(hydroxymethyl)-1,4-dioxaspiro[4.5]dec-8-yl]-6-{[2′-(5-oxo-4,5-dihydro-1,2,4-oxadiazol-3-yl)biphenyl-4-yl]methyl}-7-propyl[1,2,4]triazolo[1,5-a]pyrimidin-5(4H)-one]",2.1,31
"CCCc1c(Cc2ccc(-c3ccccc3-c3noc(=O)[nH]3)cc2)c(=O)n([C@H]2CC[C@H](OCC(C)(C)O)CC2)c2nc(C)nn12 [Example 296, 4-[trans-4-(2-hydroxy-2-methylpropoxy)cyclohexyl]-2-methyl-6-{[2′-(5-oxo-4,5-dihydro-1,2,4-oxadiazol-3-yl)biphenyl-4-yl]methyl}-7-propyl[1,2,4]triazolo[1,5-a]pyrimidin-5(4H)-one]",1.7,29
"CCCc1c(Cc2ccc(-c3ccccc3-c3noc(=O)[nH]3)cc2)c(=O)n([C@H]2CC[C@](O)(COC)CC2)c2ncnn12 [Example 297, 4-[cis-4-hydroxy-4-(methoxymethyl)cyclohexyl]-6-{[2′-(5-oxo-4,5-dihydro-1,2,4-oxadiazol-3-yl)biphenyl-4-yl]methyl}-7-propyl[1,2,4]triazolo[1,5-a]pyrimidin-5(4H)-one]",2.8,53
"CCCc1c(Cc2ccc(-c3ccccc3-c3noc(=O)[nH]3)cc2)c(=O)n([C@H]2CC[C@H](OC(C)C(C)(C)O)CC2)c2ncnn12 (stereo partly drawn) [Example 300, 4-[trans-4-(2-hydroxy-1,2-dimethylpropoxy)cyclohexyl]-6-{[2′-(5-oxo-4,5-dihydro-1,2,4-oxadiazol-3-yl)biphenyl-4-yl]methyl}-7-propyl[1,2,4]triazolo[1,5-a]pyrimidin-5(4H)-one]",1.8,16
